The values below come from patent US20240270762A1, “PENICILLIN-BINDING PROTEIN INHIBITORS” (priority 2021, published 2024).

pEC50: −log10 of the molar value. ≈ marks a conversion by molar mass, not a printed value.

One assay relates to A. baumannii ATCC 19606. The assay is described as follows: microbe, parasite or virus in culture. Format: cell-based. As to conditions: Acinetobacter baumannii, ATCC19606, read-out: MIC, A. baumannii ATCC 19606.
The target in a further assay is A. baumannii PBP2 (Acinetobacter baumannii, UniProt D0C8Z9). The assay is described as follows: Bocillin-FL competition binding via gel filtration, A. baumannii PBP2. A digest of the protocol:
(§1)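 Enzyme was pre-incubated with rising inhibitor concentrations, then Bocillin-FL was added and incubated 15 minutes more. Bound probe was separated by gel filtration and fluorescence read. EC50 came from fitting fraction of PBP labelled versus inhibitor concentration to a Hill equation with ymin, ymax and n.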
For orientation: In gel filtration, larger molecules generally elute earlier.

Another assay relates to P. aeruginosa CDC-0095. The assay is described as follows: microbe, parasite or virus in culture. It counts as cell-based. As to conditions: Pseudomonas aeruginosa, CDC0095, read-out: Minimum inhibitory concentration, P. aeruginosa CDC-0095.
Assay [1] has as its target T1, PBP3 from Escherichia coli (K-12) (Escherichia coli, UniProt P0AD68).
T1 construct: made in house
The assay is described as follows: Bocillin-FL fluorescence polarization competition binding, E. coli PBP3. In short, it runs like this: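 Purified PBPs pre-incubated with inhibitor (E. coli PBP3 1.5 μM, 30 min; P. aeruginosa PBP3 0.75 μM, A. baumannii PBP1a 1 μM and PBP3 0.2 μM, 15 min), then Bocillin-FL 0.1 μM (0.05 μM for PBP1a) added; FP read up to 60 min. EC50 = concentration halving bound Bocillin-FL.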
For orientation: Polarisation of emitted light reports the rotation of a fluorescent probe.

For a further assay, the system named is A. baumannii CDC-0033. The assay is described as follows: microbe, parasite or virus in culture. Particulars: Acinetobacter baumannii, CDC0033, read-out: MIC, A. baumannii CDC-0033. It counts as cell-based.
The target of a further assay is T2, A. baumannii PBP1a (Acinetobacter baumannii, UniProt A0ABX6CK30).
T2 sequence (A0ABX6CK30 1-851): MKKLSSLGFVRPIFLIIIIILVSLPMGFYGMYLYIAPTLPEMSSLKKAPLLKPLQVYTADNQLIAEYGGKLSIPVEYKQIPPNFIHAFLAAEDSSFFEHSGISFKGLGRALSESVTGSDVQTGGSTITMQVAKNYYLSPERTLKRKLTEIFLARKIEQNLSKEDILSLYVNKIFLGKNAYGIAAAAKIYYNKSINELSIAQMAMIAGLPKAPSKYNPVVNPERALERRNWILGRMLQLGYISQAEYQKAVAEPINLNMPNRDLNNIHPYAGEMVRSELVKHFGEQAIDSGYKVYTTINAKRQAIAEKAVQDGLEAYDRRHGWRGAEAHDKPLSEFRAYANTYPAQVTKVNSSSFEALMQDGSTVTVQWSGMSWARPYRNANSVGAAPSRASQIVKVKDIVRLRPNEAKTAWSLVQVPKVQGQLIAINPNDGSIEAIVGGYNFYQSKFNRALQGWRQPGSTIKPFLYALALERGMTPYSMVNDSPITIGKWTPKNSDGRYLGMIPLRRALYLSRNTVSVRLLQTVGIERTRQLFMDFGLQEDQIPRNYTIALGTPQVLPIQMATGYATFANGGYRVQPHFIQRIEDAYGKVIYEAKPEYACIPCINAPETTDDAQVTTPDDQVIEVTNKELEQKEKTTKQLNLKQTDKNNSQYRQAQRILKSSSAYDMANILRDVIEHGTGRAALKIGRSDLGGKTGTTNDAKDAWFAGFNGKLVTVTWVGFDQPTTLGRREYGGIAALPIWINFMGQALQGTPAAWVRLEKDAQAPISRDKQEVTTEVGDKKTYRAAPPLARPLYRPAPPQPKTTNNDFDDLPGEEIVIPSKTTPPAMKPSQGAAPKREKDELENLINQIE
Kind of assay: Bocillin-FL competition binding via gel filtration, A. baumannii PBP1a. Particulars: competition binding assay using Bocillin-FL via gel filtration; read-out: A. baumannii PBP1a Potency. In short, it runs like this:
as §1

A. baumannii PBP2, sequence (D0C8Z9 whole entry): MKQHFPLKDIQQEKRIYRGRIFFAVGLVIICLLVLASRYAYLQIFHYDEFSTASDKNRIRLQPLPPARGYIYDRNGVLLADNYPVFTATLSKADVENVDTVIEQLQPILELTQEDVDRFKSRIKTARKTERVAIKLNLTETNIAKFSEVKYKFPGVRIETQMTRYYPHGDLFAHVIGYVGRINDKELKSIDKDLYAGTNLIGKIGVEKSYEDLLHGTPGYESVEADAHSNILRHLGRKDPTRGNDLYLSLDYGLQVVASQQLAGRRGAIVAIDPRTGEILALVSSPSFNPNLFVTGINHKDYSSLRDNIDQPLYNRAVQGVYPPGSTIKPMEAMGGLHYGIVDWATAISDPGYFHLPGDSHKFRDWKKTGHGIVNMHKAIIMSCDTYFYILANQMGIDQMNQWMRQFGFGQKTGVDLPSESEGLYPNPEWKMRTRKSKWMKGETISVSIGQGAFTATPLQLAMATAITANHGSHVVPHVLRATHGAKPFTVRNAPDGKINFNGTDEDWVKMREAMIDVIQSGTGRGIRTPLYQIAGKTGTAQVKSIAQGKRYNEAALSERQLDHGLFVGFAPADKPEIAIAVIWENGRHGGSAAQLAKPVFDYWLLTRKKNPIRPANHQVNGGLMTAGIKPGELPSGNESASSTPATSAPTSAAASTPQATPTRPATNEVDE
T1 sequence (P0AD68 1-577): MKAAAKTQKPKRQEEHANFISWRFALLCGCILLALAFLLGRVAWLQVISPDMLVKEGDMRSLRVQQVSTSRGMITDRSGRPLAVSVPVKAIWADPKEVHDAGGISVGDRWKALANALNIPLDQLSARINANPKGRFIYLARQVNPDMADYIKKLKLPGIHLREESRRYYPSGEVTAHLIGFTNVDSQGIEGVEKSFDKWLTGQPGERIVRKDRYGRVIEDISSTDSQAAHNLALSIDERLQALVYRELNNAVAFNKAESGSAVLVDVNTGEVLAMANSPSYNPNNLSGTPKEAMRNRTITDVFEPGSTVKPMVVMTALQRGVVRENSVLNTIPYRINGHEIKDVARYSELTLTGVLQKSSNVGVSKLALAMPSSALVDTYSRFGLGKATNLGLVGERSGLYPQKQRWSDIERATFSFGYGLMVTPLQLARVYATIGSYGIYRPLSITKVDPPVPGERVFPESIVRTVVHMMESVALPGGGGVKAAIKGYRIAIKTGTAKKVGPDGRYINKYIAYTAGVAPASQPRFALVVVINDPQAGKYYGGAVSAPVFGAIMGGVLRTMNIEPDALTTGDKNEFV

For `O=C(NCCCN1CCN(C(=O)N[C@@H](C(=O)N[C@H]2Cc3ccc(F)c(C(=O)O)c3OB2O)c2cc(F)c(O)c(O)c2Cl)C(=O)C1=O)c1cc(F)c(O)cc1F` (single isomer, unassigned) [Example 473], the MIC was under 1 mg/L in the assay on A. baumannii ATCC 19606, under 1 mg/L in the assay with P. aeruginosa CDC-0095 and 2 to 4 mg/L (≈ 2.51 to 5.03 µM) with A. baumannii CDC-0033. The pEC50 (at A. baumannii PBP2; in assay [1]; at A. baumannii PBP1a) was over 5.00 throughout.
`O=C(NCCCS(=O)(=O)N1CCN(C(=O)NC(C(=O)N[C@H]2Cc3ccc(F)c(C(=O)O)c3OB2O)c2cc(F)c(O)c(O)c2Cl)C1=O)Nc1cccc(O)c1` (stereo partly drawn) [Example 277, (3R)-3-(2-(2-chloro-5-fluoro-3,4-dihydroxyphenyl)-2-(3-((3-(3-(3-hydroxyphenyl)ureido)propyl)sulfonyl)-2-oxoimidazolidine-1-carboxamido)acetamido)-7-fluoro-2-hydroxy-3,4-dihydro-2H-benzo[e][1,2]oxaborinine-8-carboxylic acid]: the MIC with A. baumannii ATCC 19606 was under 1 mg/L; in the assay with P. aeruginosa CDC-0095, 8 to 16 mg/L (≈ 9.87 to 19.7 µM); with A. baumannii CDC-0033 it was 2 to 4 mg/L (≈ 2.47 to 4.93 µM). For the same compound, the pEC50 (on A. baumannii PBP2; in assay [1]; on A. baumannii PBP1a) was over 5.00 each time.
Take `O=C(NCCN1CCN(C(=O)N[C@@H](C(=O)N[C@H]2Cc3ccc(F)c(C(=O)O)c3OB2O)c2cc(F)c(O)c(O)c2Cl)C1=O)Nc1ccc(O)cc1` [Example 279, (R)-3-((R)-2-(2-chloro-5-fluoro-3,4-dihydroxyphenyl)-2-(3-(2-(3-(4-hydroxyphenyl)ureido)ethyl)-2-oxoimidazolidine-1-carboxamido)acetamido)-7-fluoro-2-hydroxy-3,4-dihydro-2H-benzo[e][1,2]oxaborinine-8-carboxylic acid]: the MIC was under 1 mg/L with A. baumannii ATCC 19606, 2 to 4 mg/L (≈ 2.73 to 5.46 µM) with P. aeruginosa CDC-0095 and 2 to 4 mg/L (≈ 2.73 to 5.46 µM) with A. baumannii CDC-0033. In addition, the values for the pEC50 (on A. baumannii PBP2; in assay [1]; on A. baumannii PBP1a) were 4.30 to 5.00, over 5.00 and over 5.00, respectively.
In the case of `O=C(NCCCN1CCN(C(=O)NC(C(=O)N[C@H]2Cc3ccc(F)c(C(=O)O)c3OB2O)c2cc(F)c(O)c(O)c2Cl)C1=O)c1ccc(O)cc1` (stereo partly drawn) [Example 280, (3R)-3-(2-(2-chloro-5-fluoro-3,4-dihydroxyphenyl)-2-(3-(3-(4-hydroxybenzamido)propyl)-2-oxoimidazolidine-1-carboxamido)acetamido)-7-fluoro-2-hydroxy-3,4-dihydro-2H-benzo[e][1,2]oxaborinine-8-carboxylic acid], the figures for the MIC in the assay on A. baumannii ATCC 19606, with P. aeruginosa CDC-0095 and in the assay on A. baumannii CDC-0033 were under 1 mg/L, 8 to 16 mg/L (≈ 10.9 to 21.9 µM) and 2 to 4 mg/L (≈ 2.73 to 5.47 µM), respectively. The pEC50 (at A. baumannii PBP2; in assay [1]; at A. baumannii PBP1a) was 4.30 to 5.00 each time.
Consider `O=C(NCCCN1CCN(C(=O)N[C@@H](C(=O)N[C@H]2Cc3ccc(F)c(C(=O)O)c3OB2O)c2cc(F)c(O)c(O)c2Cl)C1=O)Nc1ccc(O)cc1` [Example 284, (R)-3-((R)-2-(2-chloro-5-fluoro-3,4-dihydroxyphenyl)-2-(3-(3-(3-(4-hydroxyphenyl)ureido)propyl)-2-oxoimidazolidine-1-carboxamido)acetamido)-7-fluoro-2-hydroxy-3,4-dihydro-2H-benzo[e][1,2]oxaborinine-8-carboxylic acid], for which the MIC in the assay on A. baumannii ATCC 19606, in the assay on P. aeruginosa CDC-0095 and in the assay on A. baumannii CDC-0033 was under 1 mg/L throughout. The pEC50 is over 5.00 at A. baumannii PBP2, 4.30 to 5.00 in assay [1] and over 5.00 at A. baumannii PBP1a.
Take `O=C(NCCCN1CCN(C(=O)NC(C(=O)N[C@H]2Cc3ccc(F)c(C(=O)O)c3OB2O)c2cc(F)c(O)c(O)c2Cl)C1=O)Nc1ccncc1` (stereo partly drawn) [Example 285, (3R)-3-(2-(2-chloro-5-fluoro-3,4-dihydroxyphenyl)-2-(2-oxo-3-(3-(3-(pyridin-4-yl)ureido)propyl)imidazolidine-1-carboxamido)acetamido)-7-fluoro-2-hydroxy-3,4-dihydro-2H-benzo[e][1,2]oxaborinine-8-carboxylic acid]: the MIC with A. baumannii ATCC 19606 was under 1 mg/L; in the assay with P. aeruginosa CDC-0095, over 128 mg/L; with A. baumannii CDC-0033, 8 to 16 mg/L (≈ 10.9 to 21.9 µM). Moreover, the pEC50 (at A. baumannii PBP2; in assay [1]; on A. baumannii PBP1a) was 4.30 to 5.00 each time.
For `O=C(NCCS(=O)(=O)N1CCN(C(=O)N[C@@H](C(=O)N[C@H]2Cc3ccc(F)c(C(=O)O)c3OB2O)c2cc(F)c(O)c(O)c2Cl)C1=O)c1ccc(O)cc1` [Example 287, (R)-3-((R)-2-(2-chloro-5-fluoro-3,4-dihydroxyphenyl)-2-(3-((2-(4-hydroxybenzamido)ethyl)sulfonyl)-2-oxoimidazolidine-1-carboxamido)acetamido)-7-fluoro-2-hydroxy-3,4-dihydro-2H-benzo[e][1,2]oxaborinine-8-carboxylic acid], the MIC with A. baumannii ATCC 19606 is under 1 mg/L; in the assay with P. aeruginosa CDC-0095 it was 2 to 4 mg/L (≈ 2.56 to 5.12 µM); in the assay on A. baumannii CDC-0033, under 1 mg/L. For the same compound, the pEC50 at A. baumannii PBP2 is over 5.00; in assay [1], over 5.00; on A. baumannii PBP1a, 4.30 to 5.00.
For the compound `O=C(NCCS(=O)(=O)N1CCN(C(=O)NC(C(=O)N[C@H]2Cc3ccc(F)c(C(=O)O)c3OB2O)c2cc(F)c(O)c(O)c2Cl)C1=O)Nc1ccc(O)cc1` (stereo partly drawn) [Example 289, (3R)-3-(2-(2-chloro-5-fluoro-3,4-dihydroxyphenyl)-2-(3-((2-(3-(4-hydroxyphenyl)ureido)ethyl)sulfonyl)-2-oxoimidazolidine-1-carboxamido)acetamido)-7-fluoro-2-hydroxy-3,4-dihydro-2H-benzo[e][1,2]oxaborinine-8-carboxylic acid], the MIC in the assay on A. baumannii ATCC 19606 was under 1 mg/L; with P. aeruginosa CDC-0095, 2 to 4 mg/L (≈ 2.51 to 5.02 µM); in the assay with A. baumannii CDC-0033 it was 2 to 4 mg/L (≈ 2.51 to 5.02 µM). For the same compound, the pEC50 is 4.30 to 5.00 at A. baumannii PBP2, over 5.00 in assay [1] and over 5.00 at A. baumannii PBP1a.
Turning to `O=C(O)c1c(F)ccc2c1OB(O)[C@@H](NC(=O)C(NC(=O)N1CCN(C3CCN(C(=O)c4cccc(O)c4)CC3)C(=O)C1=O)c1cc(F)c(O)c(O)c1Cl)C2` (stereo partly drawn) [Example 293, (3R)-3-(2-(2-chloro-5-fluoro-3,4-dihydroxyphenyl)-2-(4-(1-(3-hydroxybenzoyl)piperidin-4-yl)-2,3-dioxopiperazine-1-carboxamido)acetamido)-7-fluoro-2-hydroxy-3,4-dihydro-2H-benzo[e][1,2]oxaborinine-8-carboxylic acid], the MIC was under 1 mg/L in the assay on A. baumannii ATCC 19606, 2 to 4 mg/L (≈ 2.54 to 5.09 µM) in the assay on P. aeruginosa CDC-0095 and 2 to 4 mg/L (≈ 2.54 to 5.09 µM) in the assay on A. baumannii CDC-0033. Moreover, the pEC50 at A. baumannii PBP2 was 4.30 to 5.00; in assay [1], over 5.00; at A. baumannii PBP1a, 4.30 to 5.00.
`O=C(NCCCN1CCN(C(=O)NC(C(=O)N[C@H]2Cc3ccc(F)c(C(=O)O)c3OB2O)c2cc(F)c(O)c(O)c2Cl)C(=O)C1=O)c1ccncc1Cl` (stereo partly drawn) [Example 295, (3R)-3-(2-(2-chloro-5-fluoro-3,4-dihydroxyphenyl)-2-(4-(3-(3-chloroisonicotinamido)propyl)-2,3-dioxopiperazine-1-carboxamido)acetamido)-7-fluoro-2-hydroxy-3,4-dihydro-2H-benzo[e][1,2]oxaborinine-8-carboxylic acid]: the MIC is under 1 mg/L in the assay on A. baumannii ATCC 19606, under 1 mg/L with P. aeruginosa CDC-0095 and 2 to 4 mg/L (≈ 2.57 to 5.13 µM) in the assay with A. baumannii CDC-0033. For the same compound, the pEC50 on A. baumannii PBP2 is 4.30 to 5.00; in assay [1], over 5.00; on A. baumannii PBP1a it was 4.30 to 5.00.
On to `O=C(NCCCN1CCN(C(=O)N[C@@H](C(=O)N[C@H]2Cc3ccc(F)c(C(=O)O)c3OB2O)c2cc(F)c(O)c(O)c2Cl)C(=O)C1=O)c1ccncc1O` [Example 296, (R)-3-((R)-2-(2-chloro-5-fluoro-3,4-dihydroxyphenyl)-2-(4-(3-(3-hydroxyisonicotinamido)propyl)-2,3-dioxopiperazine-1-carboxamido)acetamido)-7-fluoro-2-hydroxy-3,4-dihydro-2H-benzo[e][1,2]oxaborinine-8-carboxylic acid], for which the MIC in the assay on A. baumannii ATCC 19606 is under 1 mg/L; in the assay on P. aeruginosa CDC-0095 it was under 1 mg/L; with A. baumannii CDC-0033, 2 to 4 mg/L (≈ 2.63 to 5.26 µM). Besides, the pEC50 (on A. baumannii PBP2; in assay [1]; on A. baumannii PBP1a) was over 5.00 throughout.
